Measured values taken from article PMC4912613, “A broad analysis of resistance development in the malaria parasite” (Nature Communications, 2016).
pEC50: −log10 of the molar value.

How the values were obtained:
[1] = system: Stage 5 gametocytes from P. falciparum NF54; assay: Late-stage (stage V) gametocyte survival assay, MitoTracker; assay type: cell-based, Plasmodium falciparum; conditions: for pEC50: Plasmodium falciparum, P. falciparum NF54, 72 h, read-out: Stage 5 Gametocyte EC50; for EC50 fold shift compared to asexual stage: Stage 5 Gametocyte EC50: gametocyte EC50 / 3D7 EC50
Description: The second assay was a late-stage (stage V) gametocyte survival assay, which predicts transmission-blocking activity. […] Positive and negative control compounds included puromycin (0.61±0.11 μM) and atovaquone (> 12.50 μM), respectively.
To test sexual-stage activity, compounds were tested against late-stage gametocytes using a MitoTracker fluorescent-based assay. Specifically, synchronized stage V gametocytes were incubated with compound for 72 h. MitoTracker Red CMXRos (Life Technologies) was added to each well (final concentration: 500 nM) together with saponin to lyse the RBCs. Each plate was then imaged with an Operetta High Content Imaging System (Perkin Elmer) for fluorescence (590–640 nm). Varying levels of compound concentration were used (1.25 μM or 12.5 μM) due to the stock concentration supplied.
The gametocytocidal activity was measured using high-content image analysis software (Harmony, Perkin Elmer). The readout was based on number of metabolically active gametocytes per well.

[2] = system: ATQ-R5 (cytb F267V, parent 3D7); assay: Cross-resistance EC50 assay, ATQ-R5; assay type: cell-based, Plasmodium falciparum; conditions: for EC50: Plasmodium falciparum, 3D7, SYBR green 72 hour assay, asynchronized parasites, 96-well or 1536-well format, ATQ-R5
Text: (§1) To evaluate potential overlapping activity against known antimalarial drug targets, we performed dose-response studies with each compound against our assembled set of drug-resistant lines and their corresponding parents, in an asexual blood stage proliferation assay (Table 1). Comparisons were made to the drug-sensitive strain 3D7 when a parent was unavailable (TM90C2A, W2 and Dd2). As laboratories conducted EC50 assays with different strains and protocols, all comparisons were made between assays from the same laboratory and under the same assay conditions. Compounds displaying >5-fold EC50 shifts relative to the parent or sensitive strain were flagged as having potentially non-novel targets. Average fold shifts per strain ranged from 0.82 to 2.34, with a median of 1.23 indicating there was not common resistance to any one resistant clone. No resistance patterns were observed when classifying the compounds based on chemical structure, but this was not surprising given the diversity of compounds chosen. On the other hand, given that these confirmed compounds were derived from larger unconfirmed hit lists to which some filtration criteria may have been applied (for example, elimination of obvious dihydrofolate reductase inhibitors[32]), some[10][11][12][13] pre-existing bias may exist in the set. […]
(§2) Alternatively, a SYBR Green-based proliferation approach was used for the 72-h assay, as previously described. Briefly, a culture of either synchronized or asynchronous parasitized RBCs (0.3% parasitemia and 4% haematocrit) in screening medium (identical to supplemented medium above except no serum was added) was exposed to serial drug dilutions. Plates were incubated at 37 °C and gassed with 93% N2, 4% CO2 and 3% O2 for 72 h. Following incubation, 10 × SYBR Green I (Invitrogen; supplied in 10,000 × concentration) in lysis buffer ([…], 5 mM EDTA, 0.16% Saponin wt per vol and 1.6% Triton X vol per vol) was added to the wells and the plates were incubated overnight at room temperature before plate reading. EC50 assays were repeated three times, taking the average EC50 value from each assay set, and removing any outliers using a single iteration of Grubbs' test, eliminating values with z-scores above the critical z-value (α=0.05). The raw EC50 values for synchronized parasites assayed in a 384-well format are listed in Supplementary Data 4. The raw EC50 values for asynchronous parasites assayed in a 96 or 1536-well format are listed in Supplementary Data 5.
(§3) EC50 values for each strain were compared with those of the corresponding parent strain to determine fold-shift changes and identify resistance. To minimize the cause variance between assays, all comparisons were conducted between strains assayed under identical conditions. A one-way ANOVA followed by a Dunnet's post-test was conducted in GraphPad Prism to identify significant changes between the parent and resistant strain.

[3] = system: GNF156R (PfCARL L830V, S1076I and M81I, parent Dd2); assay: Cross-resistance EC50 assay, GNF156R; assay type: cell-based; conditions: Plasmodium falciparum, SYBR green 72 hour assay, asynchronized parasites, 96-well or 1536-well format
Text: as §1, §2, §3

[4] = system: GNF449-R2 (PfATP4 I203L and P990R, parent Dd2); assay: Cross-resistance EC50 assay, GNF449-R2; assay type: cell-based; conditions: Plasmodium falciparum, SYBR green 72 hour assay, asynchronized parasites, 96-well or 1536-well format
Text: as §1, §2, §3

[5] = system: PfCRT-Q352R (parent Dd2); assay: Cross-resistance EC50 assay, PfCRT-Q352R; assay type: cell-based; conditions: Plasmodium falciparum, DD2, 72 h, read-out: PfCRT:Q352R (Dd2 Parent) Average EC50
Text: as §1, §2, §3

[6] = system: TM90C2A (DHFR, folate pathway; compared with 3D7); assay: Cross-resistance EC50 assay, TM90C2A; assay type: cell-based; conditions: Plasmodium falciparum, 48 h, read-out: TM90C2A (3D7 Parent) Average EC50
Text: To evaluate potential overlapping activity against known antimalarial drug targets, we performed dose-response studies with each compound against our assembled set of drug-resistant lines and their corresponding parents, in an asexual blood stage proliferation assay (Table 1). Comparisons were made to the drug-sensitive strain 3D7 when a parent was unavailable (TM90C2A, W2 and Dd2). As laboratories conducted EC50 assays with different strains and protocols, all comparisons were made between assays from the same laboratory and under the same assay conditions. Compounds displaying >5-fold EC50 shifts relative to the parent or sensitive strain were flagged as having potentially non-novel targets. Average fold shifts per strain ranged from 0.82 to 2.34, with a median of 1.23 indicating there was not common resistance to any one resistant clone. No resistance patterns were observed when classifying the compounds based on chemical structure, but this was not surprising given the diversity of compounds chosen. On the other hand, given that these confirmed compounds were derived from larger unconfirmed hit lists to which some filtration criteria may have been applied (for example, elimination of obvious dihydrofolate reductase inhibitors[32]), some[10][11][12][13] pre-existing bias may exist in the set.
The 48-h assay was carried out in a 96-well format following standard methods using the ^3H-hypoxanthine incorporation assay. The raw EC50 values corresponding to this assay can be found in Supplementary Data 3. Briefly, this assay relies on the parasite incorporation of labelled hypoxanthine that is proportional to P. falciparum growth. A culture of parasitized RBCs (0.5% parasitemia with a percentage of ring stage higher than 70% of total parasitemia, 2.0% haematocrit) in RPMI-1640, […] and 5 μM hypoxanthine was exposed to drug serial dilutions. Plates were incubated for 24 h at 37 °C, 5% CO2, 5% O2 and 90% N2. After 24 h of incubation, ^3H-hypoxanthine was added and plates were incubated for an additional 24-h period. After that, parasites were harvested on a glass fibre filter using a TOMTEC Cell Harvester 96. Filters were dried and melt-on scintillator sheets were used to determine the incorporation of ^3H-hypoxanthine. Radioactivity was measured using a microbeta counter. Data were normalized using the incorporation of the positive (parasitized RBCs without drug) and negative (same culture with artesunate at 2 μM) controls. All assays were conducted in triplicate using three independently grown cultures, and EC50 values were determined using the XLfit add-in module for Excel (version 2.3.1) from Grafit (version 5.3.1.3), where parameter h is the assay hill slope, x is the compound concentration and y is the inhibition of growth effect. The XLfit equation is: […]
as §3

SMILES	pEC50 [1]	EC50 fold shift compared to asexual stage: Stage 5 Gametocyte EC50 [1]	EC50 [2]	EC50 [3]	EC50 [4]	pEC50 [5]	pEC50 [6]	resistance in ATQ-R5 vs parent ([2]; EC50 fold-shift under the threshold (5-fold))
COc1ccc(NC(=O)N2CCCCN3[C@H](CN)[C@H](c4ccc(C#Cc5ccccc5)cc4)[C@@H]3C2)cc1 [BRD1095]	6.59	6.48	0.002 µM	0.00166 µM	0.00119 µM	7.92	–	–
CCN(CC)CCn1c(=N)n(CC(O)c2ccc(Cl)c(Cl)c2)c2ccccc21.Cl (centres unmarked) [MMV000248]	5.80	5.23	0.191 µM	0.432 µM	0.497 µM	6.48	6.33	–
CCOc1cc2c(cc1OCC)C(c1cc(Cl)ccc1O)NCC2 (centres unmarked) [MMV000478]	< 5.90	> 1.25	0.733 µM	0.764 µM	0.648 µM	6.11	5.84	–
CCCOCc1cc(CN2CCN(c3cccc(Cl)c3)CC2)c(O)c2ncccc12 [MMV000787]	5.25	–	1.43 µM	1.63 µM	1.7 µM	6.16	5.98	–
CN1CCN(c2ccc(Nc3c4ccccc4nc4ccccc34)cc2)CC1 [MMV006172]	6.04	–	0.181 µM	0.32 µM	0.31 µM	7.12	6.79	–
CCCN(CCC)CC(O)COc1ccccc1C(=O)Nc1ccccc1 (centres unmarked) [MMV006455]	< 5.90	> 2.3	0.548 µM	0.083 µM	0.309 µM	5.91	6.42	–
COc1cc2cc(C(=O)Nc3ccccc3)c(N)nc2cc1OC [MMV006767]	< 4.90	–	2.87 µM	0.379 µM	0.329 µM	5.83	5.54	–
Cc1cc(Nc2ccc(OCc3ccccc3)cc2)nc2cc(O)ccc12 [MMV007181]	6.09	2.33	0.088 µM	0.163 µM	0.153 µM	6.88	6.56	–
Brc1ccc(Nc2nc3ccccc3nc2Nc2ccc(Br)cc2)cc1 [MMV007224]	5.60	11.35	0.719 µM	0.712 µM	0.717 µM	6.54	6.81	–
Cc1ccc(Cn2c(N3CCC(C(=O)NCc4cccs4)CC3)nc3ccccc32)cc1 [MMV007564]	5.66	3.81	1.33 µM	1.62 µM	0.739 µM	6.37	6.18	–
Cc1c(C)n(Cc2ccc(F)cc2)c2ccc(C(=O)NCc3ccco3)cc12 [MMV008149]	< 5.90	1.62	1.58 µM	0.798 µM	1.36 µM	6.86	6.04	–
OC(CNC1CCCCC1)Cn1c2ccccc2c2ccccc21 (centres unmarked) [MMV009063]	< 5.90	> 1.5	0.652 µM	0.095 µM	0.457 µM	6.50	6.27	–
CCN(CC)S(=O)(=O)c1ccc(-c2csc(Nc3ccc(C)c(C)c3)n2)cc1 [MMV009108]	6.04	0.99	2.35 µM	1.5 µM	1.01 µM	6.39	6.35	–
COC(=O)c1ccc(C2C3=C(O)CC(c4ccc(F)cc4)CC3=Nc3ccccc3N2C(=O)c2ccccc2)cc1 (centres unmarked) [MMV011438]	6.01	2.25	0.34 µM	0.842 µM	0.552 µM	6.76	6.49	–
Nc1ccc(-c2nc3cc(Oc4ccc(Oc5ccc6[nH]c(-c7ccc(N)cc7)nc6c5)cc4)ccc3[nH]2)cc1 [MMV011895]	< 4.90	> 78	0.525 µM	0.126 µM	0.644 µM	6.69	6.45	–
COCCNCC(O)Cn1c2ccc(Cl)cc2c2cc(Cl)ccc21 (centres unmarked) [MMV019017]	< 5.90	> 2.6	0.842 µM	0.336 µM	0.636 µM	6.24	6.06	–
COc1ccccc1CNC(=O)CCn1c(=O)[nH]c2ccsc2c1=O [MMV019066]	< 5.90	> 0.7	0.023 µM	0.008 µM	0.008 µM	7.20	5.79	Statistically significant resistance
CN(C)CCCN(C)C(=O)C1Cc2cc(-c3ccccc3)ccc2N1S(=O)(=O)c1ccccc1 (centres unmarked) [MMV028895]	–	–	0.879 µM	3.92 µM	2.76 µM	6.62	6.60	–
COc1ccc2c3c([nH]c2c1)[C@H](CO)N(C(C)=O)CC31CCN(C(=O)Nc2ccccc2F)CC1 [MMV673482]	–	–	0.025 µM	–	0.007 µM	7.15	6.45	–
